Results taken from US10858360B2, “Tricyclic gyrase inhibitors” (priority 2011, dated 2020).
≈ marks a conversion by molar mass, not a printed value. Read-outs that look alike come from different tables or passages of the source.

How the values were obtained:
S. aureus ATCC 13709 = experiment: MIC, S. aureus ATCC 13709 (Alamar Blue broth microdilution); assay type: cell-based; conditions: for MIC: Staphylococcus aureus, ATCC13709, S. aureus
E. coli ATCC 25922 = experiment: MIC, E. coli ATCC 25922; assay type: cell-based; conditions: for MIC: Escherichia coli, ATCC25922, E. coli
[1] = Alamar Blue read after overnight incubation at 35° C.
[2] = S. aureus, Alamar Blue read after overnight incubation at 35° C.
[3] = E. coli, Alamar Blue read after overnight incubation at 35° C.

Structure (SMILES): CCc1ncc(Oc2nc(N3CC4CC4(CN)C3)c3c(n2)[nH]c2c(NC)cc(F)cc23)cn1 (centres unmarked) [4.261]
- MIC (S. aureus ATCC 13709; [1]): ≤ 0.5 mg/L
- MIC (E. coli ATCC 25922; [1]): 1 mg/L (≈ 2.23 µM)

Structure (SMILES): CNc1cc(F)cc2c1[nH]c1nc(Oc3cncc(C#N)c3)nc(N3CCC4(CC4N)C3)c12 (centres unmarked) [4.052]
- MIC (S. aureus ATCC 13709; [1]): ≤ 0.5 mg/L
- MIC (E. coli ATCC 25922; [1]): ≤ 0.5 mg/L

Structure (SMILES): CNc1cc(F)cc2c1[nH]c1nc(Oc3cnc4c(c3)ncn4C3CC3)nc(N3CC4C[C@@H](N)C4C3)c12 (some centres unmarked) [4.363]
- MIC (S. aureus ATCC 13709; [1]): ≤ 0.5 mg/L
- MIC (E. coli ATCC 25922; [1]): 1 mg/L (≈ 2 µM)

Structure (SMILES): CNc1ncc(Oc2nc(N3CC4C(N)C4C3)c3c(n2)[nH]c2c(NC)cc(F)cc23)cn1 (centres unmarked) [4.218]
- MIC (S. aureus ATCC 13709; [1]): ≤ 0.5 mg/L
- MIC (E. coli ATCC 25922; [1]): ≤ 0.5 mg/L

Structure (SMILES): CNc1cccc2c1[nH]c1nc(Sc3cnc4ccc[n+]([O-])c4c3)nc(N3CC4CC3CN4)c12 (centres unmarked) [1.57]
- MIC (S. aureus ATCC 13709; [1]): > 32 mg/L
- MIC (E. coli ATCC 25922; [1]): > 32 mg/L

Structure (SMILES): CNc1cccc2c1[nH]c1nc(Sc3cnc4cccnc4c3)nc(N3CC4CNCC4C3)c12 (centres unmarked) [1.55]
- MIC (S. aureus ATCC 13709; [1]): 1 mg/L (≈ 2.13 µM)
- MIC (E. coli ATCC 25922; [1]): 8 mg/L (≈ 17.1 µM)

Structure (SMILES): Nc1cccc2c1[nH]c1nc(Sc3cnc4cccnc4c3)nc(N3CC4C(N)C4C3)c12 (centres unmarked) [1.9]
- MIC (S. aureus ATCC 13709; [1]): 64 mg/L (≈ 145 µM)
- MIC (E. coli ATCC 25922; [1]): > 64 mg/L

Structure (SMILES): CNc1cc(F)cc2c1[nH]c1nc(Oc3ccc[n+]([O-])c3)nc(N3CC4C[C@@H](N)C4C3)c12 (some centres unmarked) [4.349]
- MIC (S. aureus ATCC 13709; [1]): ≤ 0.5 mg/L
- MIC (E. coli ATCC 25922; [1]): 1 mg/L (≈ 2.3 µM)

Structure (SMILES): CNc1cc(F)cc2c1[nH]c1nc(Oc3cnc(SC)nc3)nc(N3CC4C(N)C4C3)c12 (centres unmarked) [4.193]
- MIC (S. aureus ATCC 13709; [1]): ≤ 0.5 mg/L
- MIC (E. coli ATCC 25922; [1]): ≤ 0.5 mg/L

Structure (SMILES): CNc1cc(F)cc2c1[nH]c1nc(Oc3cnc(NC4CC4)nc3)nc(N3CCC(N)C3)c12 (centres unmarked) [4.222]
- MIC Sa (S. aureus ATCC 13709; [2]): ≤0.5 mg/L
- MIC Ec (E. coli ATCC 25922; [3]): ≤0.5 mg/L

Structure (SMILES): CNc1cc(F)cc2c1[nH]c1nc(Oc3cncnc3)nc(N3C[C@@H]4[C@H](C3)[C@@]4(N)C(N)=O)c12 [4.009]
- MIC (S. aureus ATCC 13709; [1]): ≤ 0.5 mg/L
- MIC (E. coli ATCC 25922; [1]): > 64 mg/L

Structure (SMILES): CNc1cc(Cl)cc2c1[nH]c1nc(Oc3cncnc3)nc(N3CCC4(CC4N)C3)c12 (centres unmarked) [6.11]
- MIC Sa (S. aureus ATCC 13709): ≤0.5 mg/L
- MIC Ec (E. coli ATCC 25922): ≤0.5 mg/L

Structure (SMILES): CNc1cc(F)cc2c1[nH]c1nc(Oc3cnc(N)nc3)nc(N3CC4C[C@@H](N)C4C3)c12 (some centres unmarked) [4.190]
- MIC (S. aureus ATCC 13709; [1]): ≤ 0.5 mg/L
- MIC (E. coli ATCC 25922; [1]): 1 mg/L (≈ 2.3 µM)

Structure (SMILES): CNc1cc(F)c(F)c2c1[nH]c1nc(Oc3cncnc3)nc(N3CC4C(N)C4C3)c12 (centres unmarked) [6.19]
- MIC Sa (S. aureus ATCC 13709): >16 mg/L
- MIC Ec (E. coli ATCC 25922): >16 mg/L

Structure (SMILES): CNc1cc(F)cc2c1[nH]c1nc(Oc3cncc(Cl)c3)nc(N3CC4C[C@@H](N)C4C3)c12 (some centres unmarked) [4.274]
- MIC (S. aureus ATCC 13709; [1]): ≤ 0.5 mg/L
- MIC (E. coli ATCC 25922; [1]): ≤ 0.5 mg/L

Structure (SMILES): CNc1cc(F)cc2c1[nH]c1nc(Oc3cnc(C)nc3)nc(C3=CCNCC3)c12 [4.162]
- MIC Sa (S. aureus ATCC 13709; [2]): 8 mg/L (≈ 19.7 µM)
- MIC Ec (E. coli ATCC 25922; [3]): >16 mg/L

Structure (SMILES): CNc1cc(F)cc2c1[nH]c1nc(Oc3cncnc3)nc(N3C[C@H]4C[C@@H]3C[C@H]4N)c12 [4.034]
- MIC (S. aureus ATCC 13709; [1]): ≤ 0.5 mg/L
- MIC (E. coli ATCC 25922; [1]): ≤ 0.5 mg/L

Structure (SMILES): CNc1cc(F)cc2c1[nH]c1nc(Oc3cnc(C)nc3)nc(N3CC4CC(N)C4C3)c12 (centres unmarked) [4.110]
- MIC Sa (S. aureus ATCC 13709; [2]): ≤0.5 mg/L
- MIC Ec (E. coli ATCC 25922; [3]): ≤0.5 mg/L

Structure (SMILES): CNc1cc(F)cc2c1[nH]c1nc(Oc3ccc4c(c3)C(=O)NC4)nc(N3CC4CCNC4C3)c12 (centres unmarked) [4.269]
- MIC Sa (S. aureus ATCC 13709; [2]): ≤0.5 mg/L
- MIC Ec (E. coli ATCC 25922; [3]): 4 mg/L (≈ 8.45 µM)

Structure (SMILES): CNc1cccc2c1[nH]c1nc(Oc3cncnc3)nc(N3C[C@H](N)C4(CC4)C3)c12 [3.47]
- MIC (S. aureus ATCC 13709; [1]): ≤ 0.5 mg/L
- MIC (E. coli ATCC 25922; [1]): ≤ 0.5 mg/L

Structure (SMILES): CNc1cc(F)cc2c1[nH]c1nc(Oc3cnc(C)nc3)nc(N3CCNC4(CC4)C3)c12 [4.132]
- MIC Sa (S. aureus ATCC 13709; [2]): ≤0.5 mg/L
- MIC Ec (E. coli ATCC 25922; [3]): 2 mg/L (≈ 4.6 µM)

Structure (SMILES): CNc1ncnc2c1[nH]c1nc(-c3cncnc3)nc(N3CC4C(N)C4C3)c12 (centres unmarked) [7.11]
- MIC (S. aureus ATCC 13709; [1]): > 64 mg/L
- MIC (E. coli ATCC 25922; [1]): > 64 mg/L

Structure (SMILES): CNc1cc(F)cc2c1[nH]c1nc(Oc3ccc(C#N)nc3)nc(N3CC4CCNC4C3)c12 (centres unmarked) [4.330]
- MIC Sa (S. aureus ATCC 13709; [2]): ≤0.5 mg/L
- MIC Ec (E. coli ATCC 25922; [3]): ≤0.5 mg/L

Structure (SMILES): CNc1cccc2c1[nH]c1nc(Sc3cncnc3)nc(N3CC4C(N)C4C3)c12 (centres unmarked) [1.43]
- MIC (S. aureus ATCC 13709; [1]): 2 mg/L (≈ 4.94 µM)
- MIC (E. coli ATCC 25922; [1]): 8 mg/L (≈ 19.8 µM)

Structure (SMILES): CNc1cccc2c1[nH]c1nc(Sc3cnc4cccnc4c3)nc(N3CCC4(CC4N)C3)c12 (centres unmarked) [1.26]
- MIC Sa (S. aureus ATCC 13709; [2]): ≤0.5 mg/L
- MIC Ec (E. coli ATCC 25922; [3]): 1 mg/L (≈ 2.13 µM)

Structure (SMILES): CNc1cc(F)cc2c1[nH]c1nc(Oc3cnc(C(N)=O)nc3)nc(N3C[C@H]4C[C@@H](N)[C@H]4C3)c12 [4.374]
- MIC (S. aureus ATCC 13709; [1]): ≤ 0.5 mg/L
- MIC (E. coli ATCC 25922; [1]): 4 mg/L (≈ 8.63 µM)

Structure (SMILES): CNc1cc(F)cc2c1[nH]c1nc(Oc3cnc(CN)nc3)nc(N3CC4CC3CC4N)c12 (centres unmarked) [4.393]
- MIC Sa (S. aureus ATCC 13709; [2]): ≤0.5 mg/L
- MIC Ec (E. coli ATCC 25922; [3]): 1 mg/L (≈ 2.22 µM)

Structure (SMILES): CNc1cc(F)c(F)c2c1[nH]c1nc(Oc3cnc(C)nc3)nc(N3CCC4(CC4N)C3)c12 (centres unmarked) [5.02]
- MIC Sa (S. aureus ATCC 13709; [2]): ≤0.5 mg/L
- MIC Ec (E. coli ATCC 25922; [3]): ≤0.5 mg/L

Structure (SMILES): CNc1cc(F)cc2c1[nH]c1nc(Oc3cnc(N)nc3)nc(N3CCC4(CC4N)C3)c12 (centres unmarked) [4.173]
- MIC (S. aureus ATCC 13709; [1]): ≤ 0.5 mg/L
- MIC (E. coli ATCC 25922; [1]): 1 mg/L (≈ 2.3 µM)

Structure (SMILES): CNc1cccc2c1[nH]c1nc(Oc3cncc(F)c3)nc(N3CC4C(N)C4C3)c12 (centres unmarked) [3.33]
- MIC (S. aureus ATCC 13709; [1]): ≤ 0.5 mg/L
- MIC (E. coli ATCC 25922; [1]): 1 mg/L (≈ 2.47 µM)

Structure (SMILES): CNc1cc(Cl)cc2c1[nH]c1nc(Oc3cnc(N)nc3)nc(N3CC4CC(N)C4C3)c12 (centres unmarked) [6.16]
- MIC Sa (S. aureus ATCC 13709): ≤0.5 mg/L
- MIC Ec (E. coli ATCC 25922): 1 mg/L (≈ 2.21 µM)
